Data on one compound can be found in PMC12051234, “NrdR in Streptococcus and Listeria spp.: DNA Helix Phase Dependence of the Bacterial Ribonucleotide Reductase Repressor” (Molecular Microbiology, 2025).

The structures appear in SMILES notation.

In this test the target is T1, LmoNrdR (Listeria monocytogenes, UniProt Q8Y6W9).
T1 construct: gene nrdR; full-length, C-terminal His6 tag kept (pET30a(+), NdeI/XhoI), E. coli BL21(DE3); 19 kDa with tag
T1 sequence (Q8Y6W9 1-154): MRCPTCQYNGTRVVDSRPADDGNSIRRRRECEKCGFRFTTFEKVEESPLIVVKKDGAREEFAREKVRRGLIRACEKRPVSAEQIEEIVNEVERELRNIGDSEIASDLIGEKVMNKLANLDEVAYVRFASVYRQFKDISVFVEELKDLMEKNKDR
The experiment in a line: size exclusion chromatography, oligomer shift; MST of DNA binding. To be noted: 25 mM Bis-Tris propane pH 6.5, 5 mM MgCl2, 100 mM KCl, 4 C; ADP alone.

For the compound `Nc1ncnc2c1ncn2[C@@H]1O[C@H](COP(=O)(O)OP(=O)(O)O)[C@@H](O)[C@H]1O` [ADP], the “size exclusion chromatography, oligomer shift; MST of DNA binding” value is “LmoNrdR also eluted as a tetramer in the presence of only ADP”.
